From US9351488B2, “Peracetic acid composition” (PEROXYCHEM LLC, priority 2006, dated 2016)

Test: Kill rate of peracetic acid 400-660 ppm with and without adjuvant
Format: cell-based
Details: peracetic acid 400-660 ppm in aqueous solution
Description: Use of oxidative lysing agents such as peracetic acid in aqueous solution at concentration(s) ranging from 400-660 ppm provided only moderate kill rates with log reductions of 4-5.5. However, use of peracetic acid at the same concentrations with the addition of the adjuvant herein described produced improved kill rates up to complete destruction of the species with log reductions of 6 or recovery rates of 0.

## CC(=O)OO [peracetic acid]
  log reductions: 4-5.5 log
